# Assay results from paper PMC10011554, “BET inhibitor trotabresib in heavily pretreated patients with solid tumors and diffuse large B-cell lymphomas” (Nature Communications, 2023).
# Where two headings read alike, the source gives them in different places.
# Tests used:
# BCRP or MRP2 = tested on: BCRP or MRP2; set-up: method as in Investigator's Brochure; conditions: BCRP or MRP2, ref Investigator's Brochure; cited from earlier work
# [1] = tested on: MYC expression in COH70 TNBC PDX tumor; set-up: method as in Investigator's Brochure; conditions: ref Investigator's Brochure, cited from earlier work
# OCI-LY-10 (DOX-R) = tested on: OCI-LY-10 (DOX-R); set-up: method as in Report CC-90010-Pharm-1018; conditions: Table 2, ref Report CC-90010-Pharm-1018, read-out: absolute IC50, proliferation; cited from earlier work
# [2] = set-up: method as in Unpublished data from Celgene Corporation; conditions: after final dose, ref Unpublished data from Celgene Corporation, cited from earlier work
# OCI-LY-10 (ABC DLBCL) = tested on: OCI-LY-10 (ABC DLBCL); set-up: method as in Report CC-90010-Pharm-1018; conditions: OCI-LY-10, Table 2, ref Report CC-90010-Pharm-1018; read-out: absolute IC50, proliferation; cited from earlier work
# OAT3 = tested on: OAT3; set-up: method as in Investigator's Brochure; conditions: OAT3, 30 µM, ref Investigator's Brochure; cited from earlier work
# [3] = tested on: BCRP, MRP2, OAT1, OAT3, OATP1B1, OATP1B3 and OCT2; set-up: method as in Investigator's Brochure; conditions: MRP2, OAT1, OAT3, OATP1B1, OATP1B3 and OCT2, ref Investigator's Brochure; cited from earlier work
# COH70 TNBC PDX = tested on: COH70 TNBC PDX; set-up: method as in Unpublished data from Celgene Corporation; conditions: Day 38, ref Unpublished data from Celgene Corporation, cited from earlier work
# GBM3 GBM PDX = tested on: GBM3 GBM PDX; set-up: method as in Unpublished data from Celgene Corporation; conditions: ref Unpublished data from Celgene Corporation, cited from earlier work
# [4] = Plasma pharmacokinetics and food effect, part C; assay type: in vivo, human; conditions: 45 mg/day; for AUC(0-t) / Cmax / Tmax / AUC(0-inf) / half-life / Vd/F: human, plasma, oral; for Cmax: n = 15, read-out: Cmax, GM (% GCV); for Tmax: n = 15, read-out: Median tmax (range); for AUC(0-inf): n = 15, read-out: AUCinf, GM (% GCV); for half-life: n = 15, read-out: Mean t½ (% CV) (converted); for Vd/F: n = 15, read-out: Vss/F, GM (% GCV)
# Procedure: Response was assessed using Response Evaluation Criteria in Solid Tumors (RECIST) v1.1[54] in patients with solid tumors, International Working Group criteria in patients with DLBCL[55], and Response Assessment in Neuro-Oncology (RANO) criteria[56] in patients with CNS tumors (astrocytoma and glioblastoma). For patients with BCC, the response was assessed using a combination of radiological assessment of target lesions per RECIST v1.1, digital clinical photography assessed per World Health Organization (WHO) criteria, and punch biopsies to confirm CR. PK parameters assessed included Cmax, tmax, AUC, t½, apparent clearance (CL/F), and apparent volume of distribution (Vz/F).
# Serial blood samples for PK and pharmacodynamic analyses were collected for each dosing schedule after the first and last doses in cycle 1. Additional blood samples for assessment of the food effect on trotabresib PK in part C were collected during cycle 2. The food effect–evaluable population comprised all patients with adequate PK data to allow calculation of trotabresib AUC from time 0 (day 1) to day 22 from both the fed and fasted treatment periods and who had completed a 4-h post-dose fast during the fasted cycle or consumed the entire high-fat, high-calorie meal during the fed cycle and had received all trotabresib doses during both treatment periods.
# [5] = set-up: method as in Investigator's Brochure; conditions: ref Investigator's Brochure, cited from earlier work
# [6] = set-up: method as in Unpublished data from Celgene Corporation; conditions: ref Unpublished data from Celgene Corporation, cited from earlier work
# [7] = tested on: CYP1A2, CYP2B6 and CYP3A4 mRNA; set-up: method as in Investigator's Brochure; conditions: 0.01 to 10 µM, up to 3 days, CYP1A2, CYP2B6, CYP3A4, ref Investigator's Brochure; cited from earlier work
# U-2932 (ABC DLBCL) = tested on: U-2932 (ABC DLBCL); set-up: method as in Report CC-90010-Pharm-1018; conditions: read-out: absolute IC50, proliferation, cited from earlier work
# OCI-LY-19 (GCB DLBCL) = tested on: OCI-LY-19 (GCB DLBCL); set-up: method as in Report CC-90010-Pharm-1018; conditions: OCI-LY-19, Experiment 1, ref Report CC-90010-Pharm-1018; read-out: absolute IC50, proliferation; cited from earlier work
smiles,measurement,setting,value
Cn1cc(-c2cc(S(C)(=O)=O)ccc2OCC2CC2)c2ccccc2c1=O [trotabresib],transporter inhibition,BCRP or MRP2,not an inhibitor
same,maximal suppression of MYC expression,"[1]; COH70, 2 mg/kg, at 2 hours",51.3%
same,maximal suppression of MYC expression,"[1]; COH70, 10 mg/kg, at 4 hours",63.4%
same,IC50,OCI-LY-10 (DOX-R),1100 nM
same,"AUC0-24hr, steady state",[2]; 12.5 mg/kg,"12,003 ng·hr/mL"
same,"AUC0-24hr, steady state",[2]; 16 mg/kg,"15,174 ng·hr/mL"
same,IC50,OCI-LY-10 (ABC DLBCL),418 nM
same,inhibition of mediated transport,OAT3,53.6%
same,transporter substrate status,[3],not a substrate
same,mean percent TGI,"COH70 TNBC PDX; COH70, 12.5 mg/kg/dose PO QD 3 days on/4 days off",64%
same,mean percent TGI,"COH70 TNBC PDX; COH70, 16 mg/kg/dose PO QD 3 days on/4 days off",68%
same,mean percent TGI,"COH70 TNBC PDX; COH70, 20 mg/kg/dose PO QD 3 days on/4 days off",72%
same,TGI,"GBM3 GBM PDX; GBM3, 6 mg/kg orally BID",76%
same,TGI,"GBM3 GBM PDX; GBM3, 12 mg/kg orally QD",63%
same,"Clss/F, GM (% GCV)","[4]; day 4, fasted, n = 15",2.60 (25.89) L/h
same,Median tmax (range),"[4]; day 4, fasted, n = 15",1.50 (1.00–3.00) h
same,"Clss/F, GM (% GCV)","[4]; day 4, fed, n = 15",2.65 (28.52) L/h
same,AUC(0-t),"[4]; cycle 1 day 1, fasted, n = 14, read-out: AUC0–24, GM (% GCV)",6650 ng·h/mL
same,Cmax,"[4]; cycle 1 day 1, fasted",560 ng/mL
same,Tmax,"[4]; cycle 1 day 1, fasted",1.55 h
same,AUC(0-t),"[4]; day 4, fasted, n = 15, read-out: AUC0–24, GM (% GCV)",17300 ng·h/mL
same,AUC(0-inf),"[4]; day 4, fasted",66500 ng·h/mL
same,AUC(0-t),"[4]; day 4, fasted, n = 15, read-out: AUClast, GM (% GCV)",65100 ng·h/mL
same,Cmax,"[4]; day 4, fasted",1120 ng/mL
same,half-life,"[4]; day 4, fasted",69.1 h
same,Vd/F,"[4]; day 4, fasted",235 L
same,AUC(0-t),"[4]; day 4, fed, n = 14, read-out: AUC0–24, GM (% GCV)",16800 ng·h/mL
same,AUC(0-inf),"[4]; day 4, fed",67200 ng·h/mL
same,AUC(0-t),"[4]; day 4, fed, n = 15, read-out: AUClast, GM (% GCV)",65600 ng·h/mL
same,Cmax,"[4]; day 4, fed",904 ng/mL
same,half-life,"[4]; day 4, fed",67.8 h
same,Tmax,"[4]; day 4, fed",4 h
same,Vd/F,"[4]; day 4, fed",228 L
same,severely toxic dose,"[5]; 4-week rat study, 3 days on/4 days off",≥ 20 mg base/kg/dose
same,overarching rat STD10,[5]; 3 days-on/4 days-off schedule,20 mg base/kg/dose
same,STD10,[5]; female rats,20 mg base/kg/dose
same,STD10,[5]; male rats,30 mg base/kg/dose
same,functional observational battery (FOB) effects,[5]; rat,no CC-90010-related FOB effects
same,mean exposure corresponding to the rat STD10,[5],52800 ng·h/mL
same,weight loss,"[6]; GBM15, 15 mg/kg/dose group",-6.6%
same,weight loss,"[6]; GBM15, 25 mg/kg/dose group",-3.7%
same,weight loss,"[6]; GBM15, 37.5 mg/kg/dose group",-3.1%
same,increase in mRNA over vehicle control,[7],< 2 fold
same,IC50,"U-2932 (ABC DLBCL); U-2932, Experiment 1, ref Report CC-90010-Pharm-1018",150 nM
same,IC50,"U-2932 (ABC DLBCL); U-2932, Table 2, ref Report CC-90010-Pharm-1018",167 nM
same,IC50,OCI-LY-19 (GCB DLBCL),220 nM
